Activity calls are given as the source filed them.
How the values were obtained:
Fatty acid synthase [1] = target: T1, Fatty acid synthase (Homo sapiens, UniProt P49327); test: FAS thioesterase domain inhibitors, dose response, biochemical, endpoint fluorescence intensity, uHTS hits (AID 624327); format: functional;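 note: fluorescence from hydrolysis of an O-methyl fluorescein acyl ester substrate by the enzyme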
Fatty acid synthase [2] = target: T1, Fatty acid synthase; test: FAS thioesterase domain inhibitors, dose response, biochemical, kinetic fluorescence intensity (AID 624326); format: functional;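 note: rate of fluorescence rise from hydrolysis of a fluorogenic O-methyl fluorescein ester substrate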
H4 = test: Luminescence Cell-Based Dose Response HTS to Identify Activators of 5'UTR Stem-Loop Driven Prion Protein mRNA Translation in H4 Neuroglioblastoma Cells. [Related pubchem assays: 1829 (Project Summary), 1814 (Primary HTS)]; format: functional; settings: Homo sapiens
[3] = Luminescence Cell-Based Dose Response HTS to Identify Activators of Luciferase Translation or Activity in H4 […] Cells. [Related pubchem assays: 1829 (Project Summary), 1814 (Primary HTS)]; format: functional
[4] = Luminescence Cell-Based Dose Confirmation HTS to Identify Activators of 5'UTR Stem-Loop Driven Alpha-Synuclein mRNA Translation in H4 Neuroglioblastoma Cells. [Related pubchem assays: 1829 (Project Summary), 1814 (Primary HTS)]; format: functional
[5] = HepG2 cell cytotoxicity, dose response, cytotoxicity control for Shn3 inhibitor project, CellTiter-Glo, cherry-picked (AID 624134); format: functional, cell-based
[6] = Shn3 3'UTR reporter inhibitors, dose response, cell-based, Clone20 osteoblasts, firefly luciferase, cherry-picked (AID 624132); format: functional;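 note: firefly luciferase luminescence from reporter carrying the Shn3 3'UTR in osteoblasts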
[7] = control 3'UTR Renilla luciferase suppression, dose response, counter-screen for Shn3 inhibitor project, cell-based, Clone20-Shn3RL, cherry-picked (AID 624133); format: functional
[8] = target: T2, Short transient receptor potential channel 4 (Mus musculus, UniProt Q9QUQ5); test: mouse TRPC4 channel activators, dose response, cell-based, HEK293 TRPC4/mu-opioid, Fluo-4 calcium (AID 434937); format: functional
T2 sequence (Q9QUQ5 whole entry): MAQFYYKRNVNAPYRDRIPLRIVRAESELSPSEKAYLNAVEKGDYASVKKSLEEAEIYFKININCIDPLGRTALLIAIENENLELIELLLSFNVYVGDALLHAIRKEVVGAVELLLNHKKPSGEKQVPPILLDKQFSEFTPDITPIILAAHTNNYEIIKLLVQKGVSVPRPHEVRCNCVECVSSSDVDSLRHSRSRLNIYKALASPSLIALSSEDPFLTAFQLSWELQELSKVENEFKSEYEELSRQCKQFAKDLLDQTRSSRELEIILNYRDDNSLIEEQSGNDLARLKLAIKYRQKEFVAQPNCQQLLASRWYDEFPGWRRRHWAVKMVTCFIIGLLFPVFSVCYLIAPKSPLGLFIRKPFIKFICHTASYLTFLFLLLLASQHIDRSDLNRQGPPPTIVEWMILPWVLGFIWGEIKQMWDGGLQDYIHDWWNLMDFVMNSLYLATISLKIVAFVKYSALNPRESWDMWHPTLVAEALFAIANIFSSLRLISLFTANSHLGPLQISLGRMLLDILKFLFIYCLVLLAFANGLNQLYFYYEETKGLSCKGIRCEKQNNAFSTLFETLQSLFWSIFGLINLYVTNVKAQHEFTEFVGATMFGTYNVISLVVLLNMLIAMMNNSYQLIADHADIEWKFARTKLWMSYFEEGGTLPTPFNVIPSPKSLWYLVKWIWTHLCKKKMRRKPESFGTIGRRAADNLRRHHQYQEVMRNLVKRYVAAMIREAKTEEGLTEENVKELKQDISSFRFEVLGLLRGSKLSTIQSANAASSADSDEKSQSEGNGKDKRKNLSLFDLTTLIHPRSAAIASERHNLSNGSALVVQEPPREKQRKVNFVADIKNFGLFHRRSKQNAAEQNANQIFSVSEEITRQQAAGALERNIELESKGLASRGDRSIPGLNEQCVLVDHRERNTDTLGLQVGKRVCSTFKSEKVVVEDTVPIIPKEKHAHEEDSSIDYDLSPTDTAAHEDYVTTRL

Cytochrome P450 3A4 = Cytochrome P450 3A4 (Homo sapiens, UniProt P08684); settings: Potency;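 note: confirmatory qHTS run detecting inhibitors and substrates of CYP3A4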
Chain of Cytochrome P450 3A4 (P08684 whole entry): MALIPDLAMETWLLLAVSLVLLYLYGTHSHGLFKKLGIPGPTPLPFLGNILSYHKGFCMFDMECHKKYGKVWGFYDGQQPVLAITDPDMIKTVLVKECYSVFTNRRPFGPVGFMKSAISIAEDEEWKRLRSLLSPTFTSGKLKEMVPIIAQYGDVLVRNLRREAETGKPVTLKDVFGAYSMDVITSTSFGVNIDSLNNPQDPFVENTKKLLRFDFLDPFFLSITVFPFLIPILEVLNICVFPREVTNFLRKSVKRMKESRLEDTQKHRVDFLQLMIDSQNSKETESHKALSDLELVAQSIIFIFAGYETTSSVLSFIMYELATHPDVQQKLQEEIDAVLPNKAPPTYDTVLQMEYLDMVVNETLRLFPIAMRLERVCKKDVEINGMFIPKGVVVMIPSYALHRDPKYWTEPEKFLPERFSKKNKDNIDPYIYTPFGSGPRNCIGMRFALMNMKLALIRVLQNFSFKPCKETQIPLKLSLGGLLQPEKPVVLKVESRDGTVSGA

[9] = target: T3, Calpain-2 catalytic subunit (Sus scrofa, UniProt P43367); test: pig calpain II inhibitor potency, dose response, biochemical, fluorogenic peptide substrate (AID 1420); format: functional
T3 sequence (P43367 whole entry): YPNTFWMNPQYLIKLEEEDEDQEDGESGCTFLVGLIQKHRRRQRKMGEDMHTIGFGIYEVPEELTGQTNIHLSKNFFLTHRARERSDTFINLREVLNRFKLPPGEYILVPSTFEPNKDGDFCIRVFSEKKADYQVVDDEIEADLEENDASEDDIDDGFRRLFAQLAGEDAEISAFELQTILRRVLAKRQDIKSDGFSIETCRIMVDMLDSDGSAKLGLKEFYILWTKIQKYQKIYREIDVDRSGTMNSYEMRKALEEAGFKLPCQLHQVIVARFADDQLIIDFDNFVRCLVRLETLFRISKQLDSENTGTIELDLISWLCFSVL

[10] = Luminescence Cell-Based Dose Confirmation HTS to Identify Inhibitors of Platelet Dense Granule Release. [Related pubchem assays: 1663 (Primary HTS), 1678 (Summary of Project)]; format: functional
[11] = target: Luciferin 4-monooxygenase (Photinus pyralis, UniProt P08659); test: firefly luciferase enzyme inhibitors, dose response, biochemical, luminescence (AID 1891)
Chain of Luciferin 4-monooxygenase (P08659 whole entry): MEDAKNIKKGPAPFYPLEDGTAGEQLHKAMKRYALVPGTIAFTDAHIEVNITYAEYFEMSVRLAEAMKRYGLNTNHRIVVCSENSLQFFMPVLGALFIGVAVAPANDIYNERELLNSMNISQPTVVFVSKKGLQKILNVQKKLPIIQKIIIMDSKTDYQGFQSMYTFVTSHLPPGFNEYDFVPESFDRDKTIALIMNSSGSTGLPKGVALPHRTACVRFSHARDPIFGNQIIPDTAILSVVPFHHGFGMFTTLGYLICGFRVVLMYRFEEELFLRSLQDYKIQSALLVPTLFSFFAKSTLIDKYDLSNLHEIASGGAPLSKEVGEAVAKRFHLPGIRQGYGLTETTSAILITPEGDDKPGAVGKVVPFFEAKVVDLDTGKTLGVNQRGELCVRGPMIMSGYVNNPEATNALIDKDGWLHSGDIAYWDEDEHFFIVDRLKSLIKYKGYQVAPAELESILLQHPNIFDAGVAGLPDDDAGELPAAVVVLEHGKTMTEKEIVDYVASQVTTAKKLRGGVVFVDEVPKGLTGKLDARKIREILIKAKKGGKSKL

[12] = target: T4, Ubiquitin-conjugating enzyme E2 N (Homo sapiens, UniProt P61088); format: functional;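 note: Dose-response confirmation in a TR-FRET assay detecting UBC13-driven polyubiquitin chain formation, inhibition measured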
T4 sequence (P61088 whole entry): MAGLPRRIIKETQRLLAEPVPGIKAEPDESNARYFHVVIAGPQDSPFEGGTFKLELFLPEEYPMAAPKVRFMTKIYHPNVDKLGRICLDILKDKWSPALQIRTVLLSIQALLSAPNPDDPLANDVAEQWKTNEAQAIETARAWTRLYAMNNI

[13] = cytotoxicity toward NIH3T3 fibroblasts, dose response, counter-screen, cell-based, ATP luminescence, mouse fibroblasts (AID 2010); format: functional;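 note: cells exposed to compound for about 90 hours before reading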
[14] = inhibitors of intracellular T. cruzi replication, confirmation, NIH3T3 host cells, beta-gal luminescence (AID 2044); format: functional, cell-based;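 note: intracellular parasites grown in NIH/3T3 mouse fibroblasts as host cells; luminescent beta-galactosidase reporter signal from transgenic T. cruzi replicating inside host cells; inhibitors lower the luminescence signal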
[15] = HEp-2 cell cytotoxicity, dose response, cytotoxicity control for RSV inhibitor project, HTS (AID 2410); format: functional; settings: human respiratory syncytial virus
Paired box protein Pax-8 = Paired box protein Pax-8 (Homo sapiens, UniProt Q06710); test: inhibitors of PAX8-driven TPO luciferase reporter, dose response, RMG-I cells, cherry-pick (AID 687027); format: functional, cell-based;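 note: luciferase reporter driven by Pax8 target thyroperoxidase promoter measured by SteadyGlo luminescence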
Chain of Paired box protein Pax-8 (Q06710 whole entry): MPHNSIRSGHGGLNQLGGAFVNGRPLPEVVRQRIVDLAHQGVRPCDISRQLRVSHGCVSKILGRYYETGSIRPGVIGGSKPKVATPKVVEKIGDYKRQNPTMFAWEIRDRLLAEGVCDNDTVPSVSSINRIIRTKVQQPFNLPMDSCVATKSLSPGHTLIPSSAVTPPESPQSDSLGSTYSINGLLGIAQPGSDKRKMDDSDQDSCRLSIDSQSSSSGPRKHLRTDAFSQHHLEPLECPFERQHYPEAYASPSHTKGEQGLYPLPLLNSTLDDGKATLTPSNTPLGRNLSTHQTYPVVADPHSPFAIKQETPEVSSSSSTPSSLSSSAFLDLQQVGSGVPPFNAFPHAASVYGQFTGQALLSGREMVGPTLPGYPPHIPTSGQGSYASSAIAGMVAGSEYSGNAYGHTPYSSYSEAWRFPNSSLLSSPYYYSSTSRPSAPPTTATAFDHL

T1 sequence (P49327 whole entry, the tested form may be a part): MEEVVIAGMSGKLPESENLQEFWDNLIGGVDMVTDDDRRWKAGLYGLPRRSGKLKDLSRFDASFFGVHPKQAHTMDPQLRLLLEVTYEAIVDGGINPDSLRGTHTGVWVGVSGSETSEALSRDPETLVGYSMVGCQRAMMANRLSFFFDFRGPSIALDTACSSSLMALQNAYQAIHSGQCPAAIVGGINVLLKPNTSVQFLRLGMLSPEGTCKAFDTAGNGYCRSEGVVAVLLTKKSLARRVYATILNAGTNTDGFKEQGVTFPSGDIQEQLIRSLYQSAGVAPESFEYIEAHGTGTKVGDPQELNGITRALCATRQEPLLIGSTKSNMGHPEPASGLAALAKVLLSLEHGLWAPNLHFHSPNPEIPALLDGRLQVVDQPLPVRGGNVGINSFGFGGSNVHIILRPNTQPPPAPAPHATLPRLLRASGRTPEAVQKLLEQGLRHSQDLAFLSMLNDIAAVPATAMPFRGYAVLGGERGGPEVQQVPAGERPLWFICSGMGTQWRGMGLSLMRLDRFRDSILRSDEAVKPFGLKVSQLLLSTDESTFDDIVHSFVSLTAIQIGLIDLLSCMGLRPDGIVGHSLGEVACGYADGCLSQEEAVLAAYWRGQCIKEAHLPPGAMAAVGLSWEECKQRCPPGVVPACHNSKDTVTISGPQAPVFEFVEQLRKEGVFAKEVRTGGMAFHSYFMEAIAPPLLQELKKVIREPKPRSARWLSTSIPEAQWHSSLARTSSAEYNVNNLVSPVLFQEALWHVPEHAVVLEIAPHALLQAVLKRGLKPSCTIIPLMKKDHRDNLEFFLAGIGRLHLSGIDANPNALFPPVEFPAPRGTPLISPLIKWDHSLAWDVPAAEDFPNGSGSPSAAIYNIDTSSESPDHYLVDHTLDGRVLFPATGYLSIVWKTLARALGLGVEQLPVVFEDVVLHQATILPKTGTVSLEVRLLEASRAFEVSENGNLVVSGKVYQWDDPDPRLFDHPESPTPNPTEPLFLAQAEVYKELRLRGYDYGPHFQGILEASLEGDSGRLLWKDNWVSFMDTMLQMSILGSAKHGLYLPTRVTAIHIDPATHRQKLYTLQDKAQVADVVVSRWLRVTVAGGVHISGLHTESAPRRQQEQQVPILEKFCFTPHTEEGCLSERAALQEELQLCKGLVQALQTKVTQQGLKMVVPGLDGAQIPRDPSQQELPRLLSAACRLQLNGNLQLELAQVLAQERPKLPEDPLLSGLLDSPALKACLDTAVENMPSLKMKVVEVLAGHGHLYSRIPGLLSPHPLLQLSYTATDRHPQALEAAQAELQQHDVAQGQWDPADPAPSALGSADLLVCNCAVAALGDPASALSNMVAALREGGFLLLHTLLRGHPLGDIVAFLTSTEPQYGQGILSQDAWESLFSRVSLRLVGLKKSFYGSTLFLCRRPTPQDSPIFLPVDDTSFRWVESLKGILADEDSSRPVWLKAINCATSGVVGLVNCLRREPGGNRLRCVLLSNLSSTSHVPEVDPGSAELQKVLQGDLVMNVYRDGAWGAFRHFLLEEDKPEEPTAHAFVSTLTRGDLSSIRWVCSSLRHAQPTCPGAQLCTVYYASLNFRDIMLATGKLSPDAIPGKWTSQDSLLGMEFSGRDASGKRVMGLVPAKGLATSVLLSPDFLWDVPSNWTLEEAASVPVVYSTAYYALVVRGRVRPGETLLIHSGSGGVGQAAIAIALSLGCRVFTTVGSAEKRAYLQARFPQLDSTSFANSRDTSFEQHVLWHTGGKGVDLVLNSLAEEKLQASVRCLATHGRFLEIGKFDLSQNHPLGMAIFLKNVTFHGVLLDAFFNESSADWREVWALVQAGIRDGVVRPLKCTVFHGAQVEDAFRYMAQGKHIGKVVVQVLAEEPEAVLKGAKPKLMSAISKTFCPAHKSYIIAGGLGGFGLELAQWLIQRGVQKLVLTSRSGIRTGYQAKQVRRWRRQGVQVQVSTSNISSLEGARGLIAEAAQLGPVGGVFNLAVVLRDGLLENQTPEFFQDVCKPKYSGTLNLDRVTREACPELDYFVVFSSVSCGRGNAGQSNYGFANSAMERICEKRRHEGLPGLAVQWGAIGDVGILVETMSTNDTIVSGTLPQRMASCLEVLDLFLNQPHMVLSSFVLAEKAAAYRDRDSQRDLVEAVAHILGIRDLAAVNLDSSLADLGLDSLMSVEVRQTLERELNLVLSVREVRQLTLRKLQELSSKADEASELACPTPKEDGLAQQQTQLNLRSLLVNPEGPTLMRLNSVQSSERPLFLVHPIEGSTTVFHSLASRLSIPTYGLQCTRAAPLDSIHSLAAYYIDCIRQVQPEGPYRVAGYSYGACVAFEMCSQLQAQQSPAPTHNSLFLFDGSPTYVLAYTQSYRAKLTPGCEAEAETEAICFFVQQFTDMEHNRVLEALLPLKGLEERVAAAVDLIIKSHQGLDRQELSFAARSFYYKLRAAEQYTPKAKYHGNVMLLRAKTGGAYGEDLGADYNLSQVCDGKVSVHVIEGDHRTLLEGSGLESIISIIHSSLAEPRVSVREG

In the case of `O=C(Cn1c(=O)c2sccc2n(Cc2cccc([N+](=O)[O-])c2)c1=O)NCCc1ccccc1`, the IC50 (Fatty acid synthase [1]) is reported as 11.1 µM (active) and the IC50 (Fatty acid synthase [2]) is reported as 26.7 µM (inactive).
With `CC1(C)CC(=O)C2=CNc3ccccc3N=C2C1` the EC50 (H4) was > 120 µM (not active), the EC50 [3] was > 120 µM (not active) and the EC50 [4] was > 120 µM (not active).
For `CN(Cc1cccc(Cl)c1Cl)C(=O)c1cccc(S(=O)(=O)N2CCN(Cc3ccccc3)CC2)c1`, the AC50 [5] was 55.6 µM (active), the AC50 [6] was 3.38 µM (active) and the AC50 [7] was 17.7 µM (active).
For `CCCCN(CC)CCNC(=O)c1cc2cc3ccc(Cl)cc3nc2o1`, the EC50 [8] was 0.596 µM (active).
With `Nc1c(-c2ccc(Cl)cc2)nnn1-c1ccccc1` the EC50 (H4) was 13.2 µM (active), the EC50 [3] was 0.135 µM (inconclusive) and the EC50 [4] was 0.217 µM (active).
With `Oc1ccc2c(c1)OC(c1ccc(O)c(O)c1)C(O)C2` (centres undefined) the AC50 (Cytochrome P450 3A4) was 25.1 µM (inconclusive).
In the case of `COc1cccc(C2=CC(c3ccc(OC)c(OC)c3)NC(S)=N2)c1` (centres undefined), the IC50 [9] is reported as 2.81 µM (not active).
For `CC(=O)c1ccc(NC(=O)CCc2nnc3ccc(NCc4ccco4)nn23)cc1`, the EC50 (H4) was > 120 µM (not active), the EC50 [10] was > 112 µM (not active) and the EC50 [3] was 11.2 µM (active). The EC50 [4] was 6.27 µM (active) and the EC50 [11] was > 112 µM (not active).
In the case of `COc1ccc(OC)c(NC(=O)CSc2nc3ccccc3c3nc4ccccc4n23)c1`, the IC50 [9] is reported as > 50 µM (not active).
With `Cc1ccc(NC(=O)c2ccc(S(=O)(=O)NCc3ccco3)cc2)nc1` the EC50 (H4) was 49.7 µM (active), the EC50 [3] was 11.1 µM (active) and the EC50 [4] was 15.2 µM (active).
In the case of `O=C(CCNC(=O)c1ccc([N+](=O)[O-])cc1)NCc1ccccc1`, the IC50 (Fatty acid synthase [1]) is reported as 11.3 µM (active) and the IC50 (Fatty acid synthase [2]) is reported as 10.4 µM (active).
In the case of `COc1cccc(NC(=O)c2nnn(CCc3ccccc3)c2N)c1`, the EC50 (H4) is reported as 4.53 µM (active), the EC50 [3] is reported as 6.24 µM (active) and the EC50 [4] is reported as 6.28 µM (active).
For `CSCCC(NC(=O)c1ccc(Cl)cc1Cl)C(=O)NNC(=O)c1csc(N2CCOCC2)n1` (centres undefined), the IC50 [12] was > 20 µM (inactive).
With `Cn1c(=O)c2c(nc(SCCN3CCOCC3)n2Cc2ccc(F)cc2)n(C)c1=O` the EC50 (H4) was > 120 µM (not active), the EC50 [3] was 5.27 µM (active) and the EC50 [4] was 0.262 µM (active).
For `COC(=O)[C@]1(C)CC[C@@]2(C)CC[C@@]3(C)C4=CC=C5C(=CC(=O)C(O)=C5C)[C@@]4(C)CC[C@@]3(C)C2C1` (some centres undefined), the AC50 (Cytochrome P450 3A4) was 31.6 µM (inconclusive).
For `CC(=O)N1[C@H](C)C=C[C@]1(Cc1ccccc1)C(=O)O`, the AC50 (Cytochrome P450 3A4) was 31.6 µM (inconclusive).
With `Fc1cccc(Cn2cc(C(=S)N3CCCCC3)c3ccccc32)c1` the IC50 [9] was 2.86 µM (not active).
With `Cc1ccc2nc(N=C(N)NS(=O)(=O)c3ccc([N+](=O)[O-])cc3)nc(C)c2c1` the EC50 [13] was > 60 µM (not active), the EC50 [14] was 0.199 µM (active) and the CC50 [15] was 35.2 µM (active). The IC50 (Fatty acid synthase [1]) was 12.2 µM (active) and the IC50 (Fatty acid synthase [2]) was 14.5 µM (active).
In the case of `C=CCn1c(=O)c(C(=O)Nc2ccccc2S(N)(=O)=O)c(O)c2ccccc21`, the IC50 [12] is reported as > 20 µM (inactive).
For `CN(C)C(CNc1ncnc2sc3c(c12)CCCC3)c1ccco1` (centres undefined), the EC50 [8] was 3.35 µM (active).
In the case of `COc1ccc(S(=O)(=O)N2CCC(NC(=O)OCc3c(Cl)cccc3Cl)CC2)cc1`, the IC50 [9] is reported as 7.91 µM (not active).
In the case of `CCCCCCC1=Cc2cc(OC)c(OC)cc2C(C2(C(=O)OCC)CCCC2=O)O1` (centres undefined), the AC50 (Cytochrome P450 3A4) is reported as 3.16 µM (inconclusive).
In the case of `CCCN(CCC)C(=O)CC(c1ccccc1)c1ccc(C)cc1O` (centres undefined), the IC50 [9] is reported as > 50 µM (not active).
In the case of `COC(=O)N1CC=CC1(C)C(=O)NCc1ccc(C)o1` (centres undefined), the AC50 (Cytochrome P450 3A4) is reported as 15.8 µM (inconclusive).
With `COc1ccc(C[C@H]2COC(=O)[C@@H]2Cc2ccc(OC3OC(CO)C(O)C(O)C3O)c(OC)c2)cc1OC` (some centres undefined) the AC50 [5] was 48.3 µM (active), the AC50 [6] was 4.43 µM (active) and the AC50 [7] was 15.5 µM (active).
With `CCCCN=C(S)Nc1cc([N+](=O)[O-])ccc1C` the IC50 (Fatty acid synthase [1]) was 9.4 µM (active) and the IC50 (Fatty acid synthase [2]) was 14.1 µM (active).
With `Nc1ccc2c(c1)C(=O)Cc1ccccc1S2` the IC50 [12] was > 20 µM (inactive).
For `Cc1ccc(CNC(=O)C2CCCN(Cc3cnn(-c4ccccc4)c3-n3cccc3)C2)cc1` (centres undefined), the EC50 [8] was 4.73 µM (active).
With `O=C(COc1ccc(Br)cc1CNC1CCCC1)Nc1ccccc1` the EC50 [8] was 5.96 µM (active).
In the case of `COc1ccccc1N1CC(C(=O)Nc2cc(C(F)(F)F)ccc2N2CCCC2)CC1=O` (centres undefined), the IC50 (Fatty acid synthase [1]) is reported as 6.81 µM (active) and the IC50 (Fatty acid synthase [2]) is reported as 7.17 µM (active).
In the case of `CNCCc1n[nH]c(N)n1`, the EC50 [8] is reported as 0.0667 µM (active).
With `O=C1c2sc3nc4ccccc4n3c2C(=O)N1c1ccccc1Cl` the EC50 (H4) was > 120 µM (not active), the EC50 [3] was 13.8 µM (active) and the EC50 [4] was > 120 µM (not active).
In the case of `COc1ccc(C(CNC(=O)c2ccccc2SC)N(C)C)cc1` (centres undefined), the EC50 [8] is reported as 0.473 µM (active).
For `COc1ccc(C(CNC(=O)Cc2ccc(Cl)c(Cl)c2)N(C)C)cc1` (centres undefined), the EC50 [8] was 0.299 µM (active).
With `NC(=O)c1c(NC(=O)C(=O)NCCCN2CCOCC2)sc2c1CCCC2` the IC50 [12] was > 20 µM (inactive).
With `CSCCC(c1nnnn1Cc1ccccc1)N1CCC(n2c(O)nc3ccccc32)CC1` (centres undefined) the AC50 (Paired box protein Pax-8) was 0.538 µM (active).
In the case of `O=C(CSc1ccccn1)N/N=C/c1c[nH]c2ccccc12`, the IC50 [9] is reported as > 50 µM (not active).
In the case of `C=CCSSCC=C`, the AC50 (Cytochrome P450 3A4) is reported as 25.1 µM (inconclusive).
In the case of `O=C(NCC1CCCCC1)c1cc([N+](=O)[O-])ccc1Cl`, the IC50 (Fatty acid synthase [1]) is reported as 13.8 µM (active) and the IC50 (Fatty acid synthase [2]) is reported as 9.77 µM (active).
With `COc1ccc(-c2cc(=O)c3c(O)cc(O)c(-c4cc(-c5cc(=O)c6c(O)cc(O)cc6o5)ccc4OC)c3o2)cc1` [ISOGINKGETIN] the AC50 (Cytochrome P450 3A4) was 3.98 µM (inconclusive).
